Assay results reported in patent publication US20080009418A1, “Selective Inhibitors” (Alchemia LTD., priority 2004, published 2008).

Key:
Human opioid (ORL1) = molecular target: T1, Human opioid (ORL1) (Homo sapiens, UniProt P41146); assay: Radioligand binding, human opioid ORL1 membranes, FlashPlate, [125I]-Nociceptin; conditions: compound at 10 μM, [125I]-Nociceptin, human ORL1 membranes
T1 construct: purchased Perkin Elmer Biosignal
Outline: (§1)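 Cloned human receptor membranes were coated onto FlashPlate wells and incubated with radioligand and compound (added from a 0.5 mM DMSO daughter plate) for 1 hour at room temperature in the dark. Scintillation counting gave percent inhibition, with DMSO defining total and reference ligand defining non-specific binding.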

Human δ-opioid (DOP) = molecular target: T2, Human δ-opioid (DOP) (Homo sapiens, UniProt P41143); assay: Radioligand binding, human δ-opioid (DOP) membranes, FlashPlate, [3H]-Bremazocine; conditions: compound at 10 μM; [3H]-Bremazocine, human DOP membranes
T2 construct: purchased Perkin Elmer Biosignal
Outline: as §1

Human melanocortin (MC5) = molecular target: T3, Human melanocortin (MC5) (Homo sapiens, UniProt P33032); assay: Radioligand binding, human melanocortin MC5 membranes, FlashPlate, [125I]-NDP-αMSH; conditions: compound at 10 μM; [125I]-NDP-αMSH, human MC5 membranes
T3 construct: purchased Perkin Elmer Biosignal
Outline: as §1

[1] = molecular target: T4, Human neuropeptide Y (NPY-Y1) (Homo sapiens, UniProt P25929); assay: Radioligand binding, human neuropeptide Y NPY-Y1 membranes, FlashPlate, [125I]-PYY; conditions: compound at 10 μM; [125I]-PYY, human NPY-Y1 membranes
T4 construct: purchased Perkin Elmer Biosignal
T4 sequence (P25929 1-384): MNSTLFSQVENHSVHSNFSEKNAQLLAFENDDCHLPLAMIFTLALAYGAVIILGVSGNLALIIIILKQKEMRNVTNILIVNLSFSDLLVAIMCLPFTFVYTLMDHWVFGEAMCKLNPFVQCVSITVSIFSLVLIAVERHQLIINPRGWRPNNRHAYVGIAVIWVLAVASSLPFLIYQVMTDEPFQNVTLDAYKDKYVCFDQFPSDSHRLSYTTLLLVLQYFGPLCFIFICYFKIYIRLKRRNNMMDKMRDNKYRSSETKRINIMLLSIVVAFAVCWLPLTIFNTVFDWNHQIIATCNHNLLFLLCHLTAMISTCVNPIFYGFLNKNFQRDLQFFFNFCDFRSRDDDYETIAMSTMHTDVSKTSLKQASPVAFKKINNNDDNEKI
Outline: as §1

[2] = molecular target: T5, Human melanin-concentrating hormone (MCH1) (Homo sapiens, UniProt Q99705); assay: Radioligand binding, human melanin-concentrating hormone MCH1 membranes, FlashPlate, [125I]-S36057; conditions: compound at 10 μM; [125I]-S36057, human MCH1 membranes
T5 construct: purchased Perkin Elmer Biosignal
Outline: as §1

Human Melanocortin (MC3) = molecular target: T6, Human Melanocortin (MC3) (Homo sapiens, UniProt P41968); assay: Radioligand binding, human melanocortin MC3 membranes, FlashPlate, [125I]-NDP-αMSH; conditions: compound at 10 μM, [125I]-NDP-αMSH, human MC3 membranes
T6 construct: purchased Perkin Elmer Biosignal
Outline: as §1

Human Melanocortin (MC4) = molecular target: T7, Human Melanocortin (MC4) (Homo sapiens, UniProt P32245); assay: Radioligand binding, human melanocortin MC4 membranes, FlashPlate, [125I]-NDP-αMSH; conditions: compound at 10 μM, [125I]-NDP-αMSH, human MC4 membranes
T7 construct: purchased Perkin Elmer Biosignal
Outline: as §1

Human κ-Opioid (KOP) = molecular target: T8, Human κ-Opioid (KOP) (Homo sapiens, UniProt P41145); assay: Radioligand binding, human κ-opioid (KOP) membranes, filtration, [3H]-Diprenorphine; conditions: compound at 10 μM; [3H]-Diprenorphine, human KOP membranes
T8 construct: purchased Perkin Elmer Biosignal
Outline: (§2)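 Percent inhibition of radioligand binding measured on recombinant human membranes: NK1 with [125I]-Substance P, KOP with [3H]-Diprenorphine. Incubation 1 h at room temperature, then harvest onto 0.3% PEI-soaked filters, cold Tris-HCl pH 7.4 washes and scintillation counting; non-specific binding from reference ligand wells.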

Human μ-opioid (MOP) = molecular target: T9, Human μ-opioid (MOP) (Homo sapiens, UniProt P35372); assay: Radioligand binding, human μ-opioid (MOP) membranes, FlashPlate, [3H]-Naloxone; conditions: compound at 10 μM; [3H]-Naloxone, human MOP membranes
T9 construct: purchased Perkin Elmer Biosignal
Outline: as §1

Mouse urotensin (mUR2) = molecular target: T10, Mouse urotensin (mUR2) (Mus musculus, UniProt Q8VIH9); assay: Radioligand binding, mouse urotensin mUR2 membranes, FlashPlate, [125I]-Urotensin II; conditions: compound at 10 μM; [125I]-Urotensin II, mouse mUR2 membranes
T10 construct: purchased Perkin Elmer Biosignal
T10 sequence (Q8VIH9 1-385): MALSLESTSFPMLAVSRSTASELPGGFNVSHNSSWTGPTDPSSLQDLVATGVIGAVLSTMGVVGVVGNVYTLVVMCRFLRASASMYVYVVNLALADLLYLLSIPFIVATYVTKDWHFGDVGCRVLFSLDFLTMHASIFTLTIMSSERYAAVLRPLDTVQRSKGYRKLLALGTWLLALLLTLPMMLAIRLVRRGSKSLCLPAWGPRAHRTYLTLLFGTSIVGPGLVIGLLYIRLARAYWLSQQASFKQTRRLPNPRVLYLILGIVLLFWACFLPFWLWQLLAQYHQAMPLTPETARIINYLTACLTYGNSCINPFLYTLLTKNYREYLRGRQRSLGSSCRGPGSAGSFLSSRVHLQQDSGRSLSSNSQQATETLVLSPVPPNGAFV
Outline: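 Cloned mouse urotensin (mUR2) receptor membranes from Perkin Elmer Biosignal were immobilized in FlashPlate microplates using a proprietary coating. Each well got 19.5 μl buffer, then 0.5 μl of DMSO, reference ligand, or compound. Adding 5 μl of [125I]-Urotensin II, diluted to 5× final concentration in binding buffer, started binding. Plates were sealed with TopSeal-A and incubated 1 hour at room temperature in the dark. Wells were counted for 30 seconds each on a TopCount after a 60-second delay, and percentage inhibition was calculated.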

Human neurokinin (NK1) = molecular target: T11, Human neurokinin (NK1) (Homo sapiens, UniProt P25103); assay: Radioligand binding, human neurokinin NK1 membranes, filtration, [125I]-Substance P; conditions: compound at 10 μM; [125I]-Substance P, human NK1 membranes
T11 construct: purchased Perkin Elmer Biosignal
Outline: as §2

T8 sequence (P41145 whole entry): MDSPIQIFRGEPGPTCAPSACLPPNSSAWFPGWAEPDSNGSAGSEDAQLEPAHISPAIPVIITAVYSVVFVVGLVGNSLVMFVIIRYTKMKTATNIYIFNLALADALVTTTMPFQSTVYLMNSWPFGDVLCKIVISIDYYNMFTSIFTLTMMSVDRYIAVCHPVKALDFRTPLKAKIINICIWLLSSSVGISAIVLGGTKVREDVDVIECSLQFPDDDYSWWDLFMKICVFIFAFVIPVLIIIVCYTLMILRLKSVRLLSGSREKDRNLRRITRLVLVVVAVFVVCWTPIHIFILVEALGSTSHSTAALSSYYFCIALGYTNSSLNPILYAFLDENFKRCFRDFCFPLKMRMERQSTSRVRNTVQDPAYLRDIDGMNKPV
T2 sequence (P41143 whole entry): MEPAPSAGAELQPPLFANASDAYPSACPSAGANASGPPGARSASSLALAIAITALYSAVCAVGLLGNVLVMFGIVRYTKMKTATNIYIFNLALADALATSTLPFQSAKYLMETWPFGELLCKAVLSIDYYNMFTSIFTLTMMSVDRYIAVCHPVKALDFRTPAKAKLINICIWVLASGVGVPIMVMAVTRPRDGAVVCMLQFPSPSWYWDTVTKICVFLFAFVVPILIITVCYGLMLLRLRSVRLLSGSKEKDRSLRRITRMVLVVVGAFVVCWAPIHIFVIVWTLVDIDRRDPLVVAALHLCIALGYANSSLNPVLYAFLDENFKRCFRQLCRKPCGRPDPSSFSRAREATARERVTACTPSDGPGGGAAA
T6 sequence (P41968 whole entry): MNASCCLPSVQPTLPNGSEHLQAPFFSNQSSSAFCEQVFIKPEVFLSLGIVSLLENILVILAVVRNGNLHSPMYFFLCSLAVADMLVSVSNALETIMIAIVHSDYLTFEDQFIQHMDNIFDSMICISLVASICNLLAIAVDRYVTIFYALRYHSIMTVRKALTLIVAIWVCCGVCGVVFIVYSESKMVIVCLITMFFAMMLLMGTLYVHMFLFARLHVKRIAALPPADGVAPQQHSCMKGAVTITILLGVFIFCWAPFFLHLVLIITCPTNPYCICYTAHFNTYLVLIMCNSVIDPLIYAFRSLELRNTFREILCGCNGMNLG
T1 sequence (P41146 whole entry): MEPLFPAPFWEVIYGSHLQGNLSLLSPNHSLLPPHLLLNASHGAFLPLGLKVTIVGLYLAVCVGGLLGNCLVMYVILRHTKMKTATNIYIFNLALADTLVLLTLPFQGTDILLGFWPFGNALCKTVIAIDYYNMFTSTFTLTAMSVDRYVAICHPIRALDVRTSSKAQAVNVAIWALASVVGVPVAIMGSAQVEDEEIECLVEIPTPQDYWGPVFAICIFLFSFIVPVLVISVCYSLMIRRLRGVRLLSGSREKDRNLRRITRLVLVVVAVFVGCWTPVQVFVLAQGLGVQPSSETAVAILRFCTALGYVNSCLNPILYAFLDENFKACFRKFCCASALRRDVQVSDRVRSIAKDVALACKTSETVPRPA
T3 sequence (P33032 whole entry): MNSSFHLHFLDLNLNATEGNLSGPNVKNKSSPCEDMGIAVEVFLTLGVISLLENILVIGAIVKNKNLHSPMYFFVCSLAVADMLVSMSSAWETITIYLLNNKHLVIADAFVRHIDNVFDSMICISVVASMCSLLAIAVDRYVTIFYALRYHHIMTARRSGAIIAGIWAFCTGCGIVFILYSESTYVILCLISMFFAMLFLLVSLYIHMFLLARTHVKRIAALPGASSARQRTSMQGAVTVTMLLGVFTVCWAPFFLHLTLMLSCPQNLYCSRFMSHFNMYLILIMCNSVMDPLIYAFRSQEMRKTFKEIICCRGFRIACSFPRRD
T5 sequence (Q99705 whole entry): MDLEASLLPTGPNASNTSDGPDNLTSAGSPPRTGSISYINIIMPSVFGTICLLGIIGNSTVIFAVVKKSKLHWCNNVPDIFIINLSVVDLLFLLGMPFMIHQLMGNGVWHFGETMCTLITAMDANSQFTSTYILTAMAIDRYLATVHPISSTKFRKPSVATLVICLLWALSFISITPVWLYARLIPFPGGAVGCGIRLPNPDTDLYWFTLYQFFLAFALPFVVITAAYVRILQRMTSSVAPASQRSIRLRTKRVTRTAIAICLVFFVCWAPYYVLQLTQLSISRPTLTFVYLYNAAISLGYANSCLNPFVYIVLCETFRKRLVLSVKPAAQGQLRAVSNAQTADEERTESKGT
T9 sequence (P35372 whole entry): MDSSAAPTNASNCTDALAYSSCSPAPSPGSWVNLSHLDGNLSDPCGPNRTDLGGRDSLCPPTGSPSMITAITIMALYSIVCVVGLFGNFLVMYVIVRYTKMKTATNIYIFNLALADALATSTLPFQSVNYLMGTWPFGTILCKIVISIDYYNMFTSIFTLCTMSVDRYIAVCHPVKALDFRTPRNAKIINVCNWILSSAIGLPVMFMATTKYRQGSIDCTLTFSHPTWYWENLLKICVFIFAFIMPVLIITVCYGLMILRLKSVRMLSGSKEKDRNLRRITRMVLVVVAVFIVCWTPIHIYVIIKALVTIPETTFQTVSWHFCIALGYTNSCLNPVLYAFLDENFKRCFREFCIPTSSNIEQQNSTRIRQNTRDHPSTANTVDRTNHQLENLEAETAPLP
T11 sequence (P25103 whole entry): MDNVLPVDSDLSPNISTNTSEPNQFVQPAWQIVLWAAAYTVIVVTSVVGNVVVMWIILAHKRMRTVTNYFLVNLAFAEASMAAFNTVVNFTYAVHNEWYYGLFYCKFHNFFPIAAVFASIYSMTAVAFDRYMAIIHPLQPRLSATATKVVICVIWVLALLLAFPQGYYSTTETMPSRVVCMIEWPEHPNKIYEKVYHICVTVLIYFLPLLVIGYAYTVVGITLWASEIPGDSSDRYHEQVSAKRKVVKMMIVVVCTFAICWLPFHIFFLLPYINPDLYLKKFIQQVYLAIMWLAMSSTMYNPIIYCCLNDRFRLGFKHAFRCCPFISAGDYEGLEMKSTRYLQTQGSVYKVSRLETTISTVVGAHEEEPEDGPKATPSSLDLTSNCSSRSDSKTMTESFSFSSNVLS
T7 sequence (P32245 whole entry): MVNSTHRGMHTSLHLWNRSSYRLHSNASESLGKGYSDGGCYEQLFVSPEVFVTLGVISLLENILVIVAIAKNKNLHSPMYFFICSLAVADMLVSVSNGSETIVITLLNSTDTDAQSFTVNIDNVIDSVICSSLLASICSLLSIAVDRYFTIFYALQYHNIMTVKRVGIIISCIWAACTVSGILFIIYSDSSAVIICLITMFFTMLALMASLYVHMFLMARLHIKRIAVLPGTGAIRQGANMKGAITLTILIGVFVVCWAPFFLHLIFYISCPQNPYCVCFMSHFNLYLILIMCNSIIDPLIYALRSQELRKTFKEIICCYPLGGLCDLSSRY

| SMILES | A10: inhibition of radioligand binding (Human opioid (ORL1); 10 µM) | A1: inhibition of radioligand binding (Human δ-opioid (DOP)) | A5: inhibition of radioligand binding (Human melanocortin (MC5)) | A9: inhibition of radioligand binding [1] | A6: inhibition of radioligand binding [2] | A3: inhibition of radioligand binding (Human Melanocortin (MC3); 10 µM) | A4: inhibition of radioligand binding (Human Melanocortin (MC4); 10 µM) | A2: inhibition of radioligand binding (Human κ-Opioid (KOP)) | A7: inhibition of radioligand binding (Human μ-opioid (MOP)) | A11: inhibition of radioligand binding (Mouse urotensin (mUR2)) | A8: inhibition of radioligand binding (Human neurokinin (NK1)) | A10: inhibition of radioligand binding (Human opioid (ORL1)) | A3: inhibition of radioligand binding (Human Melanocortin (MC3)) | A4: inhibition of radioligand binding (Human Melanocortin (MC4)) |
| --- | --- | --- | --- | --- | --- | --- | --- | --- | --- | --- | --- | --- | --- | --- |
| NCCCC(=O)NC1C(OCc2ccc3ccccc3c2)OC(COCc2ccc(Cl)cc2)C(O)C1OCc1ccccc1 (stereo not shown) [compound 398] | − (“−” indicates less than 50% inhibition at 10 μM) | − (“−” indicates less than 50% inhibition at 10 μM) | + (“+” indicates greater than 50% inhibition at 10 μM) | − (“−” indicates less than 50% inhibition at 10 μM) | − (“−” indicates less than 50% inhibition at 10 μM) | + (“+” indicates greater than 50% inhibition at 10 μM) | + (“+” indicates greater than 50% inhibition at 10 μM) | − (“−” indicates less than 50% inhibition at 10 μM) | − (“−” indicates less than 50% inhibition at 10 μM) | − (“−” indicates less than 50% inhibition at 10 μM) | + (“+” indicates greater than 50% inhibition at 10 μM) | – | – | – |
| N=C(N)NCC(=O)NC1C(OCc2ccc(-c3ccccc3)cc2)OC(COCc2ccc3ccccc3c2)C(O)C1OCc1ccc(Cl)cc1 (stereo not shown) [compound 399] | – | − (“−” indicates less than 50% inhibition at 10 μM) | + (“+” indicates greater than 50% inhibition at 10 μM) | − (“−” indicates less than 50% inhibition at 10 μM) | − (“−” indicates less than 50% inhibition at 10 μM) | – | – | − (“−” indicates less than 50% inhibition at 10 μM) | − (“−” indicates less than 50% inhibition at 10 μM) | − (“−” indicates less than 50% inhibition at 10 μM) | + (“+” indicates greater than 50% inhibition at 10 μM) | − (“−” indicates less than 50% inhibition at 10 μM) | + (“+” indicates greater than 50% inhibition at 10 μM) | + (“+” indicates greater than 50% inhibition at 10 μM) |
| N=C(N)NCC(=O)NC1C(OCc2ccc(-c3ccccc3)cc2)OC(COCc2ccccc2)C(O)C1OCc1ccc(Cl)cc1 (stereo not shown) [compound 400] | – | − (“−” indicates less than 50% inhibition at 10 μM) | + (“+” indicates greater than 50% inhibition at 10 μM) | − (“−” indicates less than 50% inhibition at 10 μM) | + (“+” indicates greater than 50% inhibition at 10 μM) | – | – | − (“−” indicates less than 50% inhibition at 10 μM) | − (“−” indicates less than 50% inhibition at 10 μM) | − (“−” indicates less than 50% inhibition at 10 μM) | + (“+” indicates greater than 50% inhibition at 10 μM) | + (“+” indicates greater than 50% inhibition at 10 μM) | + (“+” indicates greater than 50% inhibition at 10 μM) | + (“+” indicates greater than 50% inhibition at 10 μM) |
| N=C(N)NCC(=O)NC1C(OCc2ccc(-c3ccccc3)cc2)OC(COCc2ccc(Cl)cc2)C(O)C1OCc1ccc(Cl)cc1 (stereo not shown) [compound 401] | – | − (“−” indicates less than 50% inhibition at 10 μM) | + (“+” indicates greater than 50% inhibition at 10 μM) | − (“−” indicates less than 50% inhibition at 10 μM) | + (“+” indicates greater than 50% inhibition at 10 μM) | – | – | − (“−” indicates less than 50% inhibition at 10 μM) | − (“−” indicates less than 50% inhibition at 10 μM) | − (“−” indicates less than 50% inhibition at 10 μM) | + (“+” indicates greater than 50% inhibition at 10 μM) | + (“+” indicates greater than 50% inhibition at 10 μM) | + (“+” indicates greater than 50% inhibition at 10 μM) | + (“+” indicates greater than 50% inhibition at 10 μM) |
| N=C(N)NCC(=O)NC1C(OCc2ccc(-c3ccccc3)cc2)OC(COCc2ccc3ccccc3c2)C(O)C1OCc1ccc2ccccc2c1 (stereo not shown) [compound 402] | – | − (“−” indicates less than 50% inhibition at 10 μM) | + (“+” indicates greater than 50% inhibition at 10 μM) | − (“−” indicates less than 50% inhibition at 10 μM) | + (“+” indicates greater than 50% inhibition at 10 μM) | – | – | − (“−” indicates less than 50% inhibition at 10 μM) | − (“−” indicates less than 50% inhibition at 10 μM) | − (“−” indicates less than 50% inhibition at 10 μM) | + (“+” indicates greater than 50% inhibition at 10 μM) | + (“+” indicates greater than 50% inhibition at 10 μM) | + (“+” indicates greater than 50% inhibition at 10 μM) | + (“+” indicates greater than 50% inhibition at 10 μM) |
